Experimental findings from ChEMBL document CHEMBL5579846, “Synthesis of thiazolidine-2,4-dione tethered 1,2,3-triazoles as α-amylase inhibitors: In vitro approach coupled with QSAR, molecular docking, molecular dynamics and ADMET studies” (Eur J Med Chem, 2024) are described below.

Structures are written as SMILES.

In the test the target is T1, Alpha amylase (Homo sapiens, UniProt P0DUB6).
T1 sequence (P0DUB6 whole entry): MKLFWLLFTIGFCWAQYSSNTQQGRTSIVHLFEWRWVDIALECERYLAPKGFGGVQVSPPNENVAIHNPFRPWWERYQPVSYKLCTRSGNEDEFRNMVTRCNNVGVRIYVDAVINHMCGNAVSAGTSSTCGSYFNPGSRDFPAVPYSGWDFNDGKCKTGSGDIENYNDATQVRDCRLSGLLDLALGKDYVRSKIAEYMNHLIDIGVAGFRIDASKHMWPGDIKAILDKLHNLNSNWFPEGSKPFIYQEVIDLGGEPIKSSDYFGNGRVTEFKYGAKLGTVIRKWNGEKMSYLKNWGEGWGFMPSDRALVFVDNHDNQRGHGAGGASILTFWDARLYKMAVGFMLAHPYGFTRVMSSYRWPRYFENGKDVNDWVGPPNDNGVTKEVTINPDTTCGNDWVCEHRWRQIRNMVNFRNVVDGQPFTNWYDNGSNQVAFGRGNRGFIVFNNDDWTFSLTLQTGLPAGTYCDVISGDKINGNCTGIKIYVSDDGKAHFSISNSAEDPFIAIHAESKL
Description: Inhibition of alpha-amylase (unknown origin) using 1% starch as substrate preincubated for 30 mins followed by substrate addition and measured after 30 mins by colorimetric analysis. Format: protein assay.
Compound `CN(C)/C=C1\SC(=O)N(Cc2cn(-c3ccc(C(F)(F)F)cc3)nn2)C1=O` yielded a half-maximal inhibitory concentration (IC50) of 84 µM and a pIC50 of 7.077.
Regarding `CCCCn1cc(CN2C(=O)S/C(=C\N(C)C)C2=O)nn1`, the IC50 was 58 µM and the pIC50 came to 7.24.
The like results for `CN(C)/C=C1\SC(=O)N(Cc2cn(Cc3ccc(Cl)cc3Cl)nn2)C1=O` were, in that order, 45 µM and 7.349.
`Cc1ccc(-n2cc(CN3C(=O)S/C(=C\N(C)C)C3=O)nn2)c(C)c1` registered an IC50 of 48 µM and a pIC50 of 7.318.
In turn, `CN(C)/C=C1\SC(=O)N(Cc2cn(-c3ccc([N+](=O)[O-])cc3)nn2)C1=O` had an IC50 of 59 µM and a pIC50 of 7.227.
`CN(C)/C=C1\SC(=O)N(Cc2cn(-c3cccc(C(F)(F)F)c3)nn2)C1=O`: the IC50 was 55 µM and the pIC50 is recorded as 7.258.
For `COc1ccc(-n2cc(CN3C(=O)S/C(=C\N(C)C)C3=O)nn2)cc1`, the concentration for half-maximal inhibition (IC50) was determined as 53 µM and the pIC50 is 7.276.
The compound `CN(C)/C=C1\SC(=O)N(Cc2cn(-c3cccc(Cl)c3)nn2)C1=O` displayed an IC50 of 66 µM and a pIC50 of 7.182.
For `CN(C)/C=C1\SC(=O)N(Cc2cn(-c3ccccc3C(F)(F)F)nn2)C1=O`, the IC50 was 48 µM and the pIC50 was 7.319.
`CN(C)/C=C1\SC(=O)N(Cc2cn(-c3ccccc3Cl)nn2)C1=O` yielded an IC50 of 91 µM and a pIC50 of 7.039.
Take `CN(C)/C=C1\SC(=O)N(Cc2cn(-c3ccc(F)cc3)nn2)C1=O`: the IC50 was 93 µM and the pIC50 worked out at 7.031.
Regarding `CCc1ccc(-n2cc(CN3C(=O)S/C(=C\N(C)C)C3=O)nn2)cc1`, the IC50 came to 68 µM and the pIC50 was determined as 7.169.
As to `CN(C)/C=C1\SC(=O)N(Cc2cn(-c3ccccc3)nn2)C1=O`, the IC50 is 99 µM and the pIC50 is recorded as 7.003.
In turn, `COc1ccccc1-n1cc(CN2C(=O)S/C(=C\N(C)C)C2=O)nn1` returned an IC50 of 65 µM and a pIC50 of 7.185.
The compound `Cc1cc(C)cc(-n2cc(CN3C(=O)S/C(=C\N(C)C)C3=O)nn2)c1` gave an IC50 of 66 µM and a pIC50 of 7.182.
Regarding `C#CCN1C(=O)S/C(=C\N(C)C)C1=O`, the IC50 is 139 µM and the pIC50 was 6.859.
`COc1cccc(-n2cc(CN3C(=O)S/C(=C\N(C)C)C3=O)nn2)c1`: the IC50 is 69 µM and the pIC50 is 7.164.
In the same order, the values of `CN(C)/C=C1\SC(=O)N(Cc2cn(-c3cccc(Cl)c3Cl)nn2)C1=O` are 60 µM and 7.222.
For the compound `Cc1ccc(C)c(-n2cc(CN3C(=O)S/C(=C\N(C)C)C3=O)nn2)c1`, the half-maximal inhibitory concentration (IC50) is 93 µM and the pIC50 is on record as 7.032.
As for `CN(C)/C=C1\SC(=O)N(Cc2cn(CC(=O)c3ccc(Br)cc3)nn2)C1=O`, the IC50 is 78 µM and the pIC50 was found to be 7.108.
Turning to `CN(C)/C=C1\SC(=O)N(Cc2cn(-c3ccnc4cc(Cl)ccc34)nn2)C1=O`, the IC50 was determined as 40 µM and the pIC50 is 7.399.
Compound `CN(C)/C=C1\SC(=O)N(Cc2cn(-c3ccc(Cl)cc3)nn2)C1=O` had an IC50 of 98 µM and a pIC50 of 7.01.
With `CN(C)/C=C1\SC(=O)N(Cc2cn(Cc3ccccc3)nn2)C1=O`, the IC50 came to 80 µM and the pIC50 is 7.095.
As for `Cc1cccc(-n2cc(CN3C(=O)S/C(=C\N(C)C)C3=O)nn2)c1`, the IC50 was 61 µM and the pIC50 worked out at 7.215.
In the same order, the values of `CCc1ccccc1-n1cc(CN2C(=O)S/C(=C\N(C)C)C2=O)nn1` are 49 µM and 7.307.
As for `CC(C)c1ccc(-n2cc(CN3C(=O)S/C(=C\N(C)C)C3=O)nn2)cc1`, the IC50 amounted to 54 µM and the pIC50 worked out at 7.268.
